Experimental data taken from PubChem BioAssay (NCI).
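The compound was tested at five concentrations on cells cultured in 96-well plates, with a 48-hour exposure period. GI50: concentration for 50% inhibition of growth. TGI: concentration producing complete growth inhibition.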 Where a SMILES comes first, the peptide text is derived from it. The star is where a group is joined. CH2Cl = ClC*

What was measured:
Assay in all cases: DTP human tumour cell line panel, 48 h
[1] = system: 786-0 renal
[2] = system: A498 renal
[3] = system: A549 NSCLC
[4] = system: ACHN renal
[5] = system: BT-549 breast
[6] = system: CAKI-1 renal
[7] = system: CCRF-CEM leukemia
[8] = system: COLO 205 colon
[9] = system: DU-145 prostate
[10] = system: EKVX NSCLC
[11] = system: HCC-2998 colon
[12] = system: HCT-116 colon
[13] = system: HCT-15 colon
[14] = system: HL-60(TB) leukemia
[15] = system: HOP-62 NSCLC
[16] = system: HOP-92 NSCLC
[17] = system: HS 578T breast
[18] = system: HT29 colon
[19] = system: IGROV1 ovarian
[20] = system: K-562 leukemia
[21] = system: KM12 colon
[22] = system: LOX IMVI melanoma
[23] = system: M14 melanoma
[24] = system: MALME-3M melanoma
[25] = system: MCF7 breast
[26] = system: MDA-MB-231 breast
[27] = system: MDA-MB-435
[28] = system: MDA-N
[29] = system: MOLT-4 leukemia
[30] = system: NCI-H226 lung
[31] = system: NCI-H23 lung
[32] = system: NCI-H460 lung
[33] = system: NCI-H522 lung
[34] = system: NCI/ADR-RES ovarian
[35] = system: OVCAR-3 ovarian
[36] = system: OVCAR-4 ovarian
[37] = system: OVCAR-5 ovarian
[38] = system: OVCAR-8 ovarian
[39] = system: PC-3 prostate
[40] = system: RPMI-8226 leukemia
[41] = system: RXF 393 renal
[42] = system: SF-268 CNS
[43] = system: SF-295 CNS
[44] = system: SF-539 CNS
[45] = system: SK-MEL-2 melanoma
[46] = system: SK-MEL-28 melanoma
[47] = system: SK-MEL-5 melanoma
[48] = system: SK-OV-3 ovarian
[49] = system: SN12C renal
[50] = system: SNB-19 CNS
[51] = system: SNB-75 CNS
[52] = system: SR leukemia
[53] = system: SW-620 colon
[54] = system: T-47D breast
[55] = system: TK-10 renal
[56] = system: U251 CNS
[57] = system: UACC-257 melanoma
[58] = system: UACC-62 melanoma
[59] = system: UO-31 renal

`O=NNc1ccc(S(=O)c2ccccc2)cn1` (stereo not drawn) was tested, and the TGI [1] was greater than 100 µM, the TGI [2] was greater than 100 µM and the TGI [3] was greater than 100 µM. It also gave a TGI [4] greater than 100 µM, a TGI [5] greater than 100 µM and a TGI [6] greater than 100 µM. It also gave a TGI [7] greater than 100 µM, a TGI [8] greater than 100 µM and a TGI [9] greater than 100 µM. For the same compound, the TGI [10] was greater than 100 µM, the GI50 [11] was greater than 100 µM and the TGI [11] was greater than 100 µM. For the same compound, the TGI [12] was greater than 100 µM, the TGI [13] was greater than 100 µM and the TGI [14] was greater than 100 µM. It also gave a TGI [15] greater than 100 µM, a GI50 [16] of 12.2 µM and a TGI [16] greater than 100 µM. It also gave a TGI [17] greater than 100 µM, a TGI [18] greater than 100 µM and a TGI [19] greater than 100 µM. For the same compound, the TGI [20] was greater than 100 µM, the TGI [21] was greater than 100 µM and the GI50 [22] was greater than 100 µM. For the same compound, the TGI [22] was greater than 100 µM, the TGI [23] was greater than 100 µM and the TGI [24] was greater than 100 µM. The TGI [25] was greater than 100 µM, the TGI [26] was greater than 100 µM and the GI50 [27] was greater than 100 µM. It also gave a TGI [27] greater than 100 µM, a TGI [28] greater than 100 µM and a TGI [29] greater than 100 µM. For the same compound, the TGI [30] was greater than 100 µM, the TGI [31] was greater than 100 µM and the TGI [32] was greater than 100 µM. The TGI [33] was greater than 100 µM, the TGI [34] was greater than 100 µM and the TGI [35] was greater than 100 µM. It also gave a TGI [36] greater than 100 µM, a TGI [37] greater than 100 µM and a TGI [38] greater than 100 µM. It also gave a TGI [39] greater than 100 µM, a GI50 [40] greater than 100 µM and a TGI [40] greater than 100 µM. The TGI [41] was greater than 93.7 µM, the TGI [42] was greater than 100 µM and the TGI [43] was greater than 100 µM. For the same compound, the TGI [44] was greater than 100 µM, the GI50 [45] was greater than 100 µM and the TGI [45] was greater than 100 µM. For the same compound, the TGI [46] was greater than 100 µM, the TGI [47] was greater than 100 µM and the TGI [48] was greater than 100 µM. It also gave a TGI [49] greater than 100 µM, a TGI [50] greater than 100 µM and a TGI [51] greater than 100 µM. The TGI [52] was greater than 100 µM, the TGI [53] was greater than 100 µM and the TGI [54] was greater than 100 µM. It also gave a TGI [55] greater than 100 µM, a TGI [56] greater than 100 µM and a TGI [57] greater than 100 µM. The TGI [58] was greater than 100 µM and the TGI [59] was greater than 100 µM.
Work on `CC(=O)NC(CC(C)C)C(=O)NC(Cc1ccccc1)C(=O)CCl` (stereo not drawn) (Ac-Leu-Phe-CH2Cl; configuration not given here) yielded a TGI [1] of 17 µM, a TGI [2] of 33.8 µM and a TGI [3] of 41.6 µM. For the same compound, the TGI [4] was 23.9 µM, the TGI [5] was 28.4 µM and the TGI [6] was 32.1 µM. For the same compound, the TGI [7] was 3.94 µM, the TGI [8] was greater than 51.1 µM and the TGI [9] was 17 µM. The TGI [10] was 38.4 µM, the TGI [11] was 30.4 µM and the TGI [12] was 19.2 µM. It also gave a TGI [13] of 13.2 µM, a TGI [14] greater than 21.3 µM and a TGI [15] of 33.2 µM. For the same compound, the TGI [16] was 16.5 µM, the TGI [17] was 36.4 µM and the TGI [18] was 34.6 µM. The TGI [19] was 31.6 µM, the TGI [20] was 10.7 µM and the TGI [21] was 36 µM. For the same compound, the TGI [22] was 10.6 µM, the TGI [23] was 21.1 µM and the TGI [24] was 18.4 µM. It also gave a TGI [25] of 22.8 µM, a TGI [26] of 39.3 µM and a TGI [27] of 28 µM. For the same compound, the TGI [28] was 32.9 µM, the TGI [29] was 4.53 µM and the TGI [30] was 39.1 µM. For the same compound, the TGI [31] was 30.3 µM, the TGI [32] was 43.3 µM and the TGI [33] was 7.43 µM. It also gave a TGI [34] of 50.1 µM, a TGI [35] of 28.3 µM and a TGI [36] of 43.6 µM. It also gave a TGI [37] of 32.4 µM, a TGI [38] of 19.6 µM and a TGI [39] of 30.7 µM. It also gave a TGI [40] greater than 25 µM, a TGI [41] of 5.69 µM and a TGI [42] of 50.4 µM. For the same compound, the TGI [43] was 33.9 µM, the TGI [44] was 34.5 µM and the TGI [45] was 27.4 µM. For the same compound, the TGI [46] was 23.2 µM, the TGI [47] was 22.5 µM and the TGI [48] was 32.3 µM. For the same compound, the TGI [49] was 27 µM, the TGI [50] was 37.7 µM and the TGI [51] was 28.1 µM. The TGI [52] was greater than 21.8 µM, the TGI [53] was 9.17 µM and the TGI [54] was greater than 59.7 µM. The TGI [55] was 24.1 µM, the TGI [56] was 30.5 µM and the TGI [57] was 22.4 µM. The TGI [58] was 19 µM and the TGI [59] was 28.4 µM.
Compound `CCCCCOC(=O)C(=O)Nc1n[nH]nc1C(N)=O` has a TGI [1] greater than 100 µM, a TGI [2] greater than 100 µM and a TGI [3] greater than 100 µM. For the same compound, the TGI [4] was greater than 100 µM, the TGI [5] was greater than 100 µM and the TGI [6] was greater than 100 µM. It also gave a TGI [7] greater than 100 µM, a TGI [8] greater than 100 µM and a TGI [9] greater than 100 µM. For the same compound, the TGI [10] was greater than 100 µM, the TGI [11] was greater than 100 µM and the TGI [12] was greater than 100 µM. For the same compound, the TGI [13] was greater than 100 µM, the TGI [14] was greater than 100 µM and the TGI [15] was greater than 100 µM. For the same compound, the TGI [16] was greater than 100 µM, the TGI [17] was greater than 100 µM and the TGI [18] was greater than 100 µM. For the same compound, the TGI [19] was greater than 100 µM, the TGI [20] was greater than 100 µM and the TGI [21] was greater than 100 µM. It also gave a TGI [22] greater than 100 µM, a TGI [23] greater than 100 µM and a TGI [24] greater than 100 µM. For the same compound, the TGI [25] was greater than 100 µM, the TGI [26] was greater than 100 µM and the TGI [27] was greater than 100 µM. It also gave a TGI [28] greater than 100 µM, a TGI [29] greater than 100 µM and a TGI [30] greater than 100 µM. For the same compound, the TGI [31] was greater than 100 µM, the TGI [32] was greater than 100 µM and the TGI [33] was greater than 100 µM. For the same compound, the TGI [34] was greater than 100 µM, the TGI [35] was greater than 100 µM and the TGI [36] was greater than 100 µM. It also gave a TGI [37] greater than 100 µM, a TGI [38] greater than 100 µM and a TGI [39] greater than 100 µM. For the same compound, the TGI [40] was greater than 100 µM, the TGI [41] was greater than 100 µM and the TGI [42] was greater than 100 µM. For the same compound, the TGI [43] was greater than 100 µM, the TGI [44] was greater than 100 µM and the TGI [45] was greater than 100 µM. It also gave a TGI [46] greater than 100 µM, a TGI [47] greater than 100 µM and a TGI [48] greater than 100 µM. For the same compound, the TGI [49] was greater than 100 µM, the TGI [50] was greater than 100 µM and the TGI [51] was greater than 100 µM. The TGI [52] was greater than 100 µM, the TGI [53] was greater than 100 µM and the TGI [54] was greater than 100 µM. For the same compound, the TGI [55] was greater than 100 µM, the TGI [56] was greater than 100 µM and the TGI [57] was greater than 100 µM. For the same compound, the TGI [58] was greater than 100 µM and the TGI [59] was greater than 100 µM.
